According to patent US11292770B2, “Pyridazinone herbicides” (FMC Corporation, priority 2017, dated 2022):

Tests used:
Format in all cases: in vivo
[1] = tested on: barnyardgrass (Echinochloa crus-galli); experiment: Test A preemergence, barnyardgrass; conditions: 0 to 100 scale
Source text: (§1) Seeds of plant species selected from barnyardgrass (Echinochloa crus-galli), kochia (Kochia scoparia), ragweed (common ragweed, Ambrosia elation), ryegrass, Italian (Italian ryegrass, Lolium multiflorum), foxtail, green (green foxtail, Setaria viridis), and pigweed (Amaranthus retroflexus) were planted into a blend of loam soil and sand and treated preemergence with a directed soil spray using test chemicals formulated in a non-phytotoxic solvent mixture which included a surfactant. At the same time, plants selected from these weed species and also wheat (Triticum aestivum), corn (Zea mays), blackgrass (Alopecurus myosuroides), and galium (catchweed bedstraw, Galium aparine) were planted in pots containing the same blend of loam soil and sand and treated with postemergence applications of test chemicals formulated in the same manner Plants ranged in height from 2 to 10 cm and were in the one- to two-leaf stage for the postemergence treatment. Treated plants and untreated controls were maintained in a greenhouse for approximately 10 d, after which time all treated plants were compared to untreated controls and visually evaluated for injury. Plant response ratings, summarized in Table A, are based on a 0 to 100 scale where 0 is no effect and 100 is complete control. A dash (—) response means no test result.

[2] = tested on: kochia (Kochia scoparia); experiment: Test A preemergence, kochia; conditions: 0 to 100 scale
Source text: as §1

[3] = tested on: ragweed (common ragweed, Ambrosia elation); experiment: Test A preemergence, ragweed; conditions: 0 to 100 scale
Source text: as §1

[4] = tested on: ryegrass, Italian (Italian ryegrass, Lolium multiflorum); experiment: Test A preemergence, ryegrass, Italian; conditions: 0 to 100 scale
Source text: as §1

[5] = tested on: foxtail, green (green foxtail, Setaria viridis); experiment: Test A preemergence, foxtail, green; conditions: 0 to 100 scale
Source text: as §1

[6] = tested on: pigweed (Amaranthus retroflexus); experiment: Test A preemergence, pigweed; conditions: 0 to 100 scale
Source text: as §1

[7] = tested on: barnyardgrass (Echinochloa crus-galli); experiment: Test A postemergence, barnyardgrass; conditions: 0 to 100 scale
Source text: as §1

[8] = tested on: kochia (Kochia scoparia); experiment: Test A postemergence, kochia; conditions: 0 to 100 scale
Source text: as §1

[9] = tested on: ragweed (common ragweed, Ambrosia elation); experiment: Test A postemergence, ragweed; conditions: 0 to 100 scale
Source text: as §1

[10] = tested on: ryegrass, Italian (Italian ryegrass, Lolium multiflorum); experiment: Test A postemergence, ryegrass, Italian; conditions: 0 to 100 scale
Source text: as §1

[11] = tested on: foxtail, green (green foxtail, Setaria viridis); experiment: Test A postemergence, foxtail, green; conditions: 0 to 100 scale
Source text: as §1

[12] = tested on: pigweed (Amaranthus retroflexus); experiment: Test A postemergence, pigweed; conditions: 0 to 100 scale
Source text: as §1

[13] = tested on: wheat (Triticum aestivum); experiment: Test A postemergence, wheat; conditions: 0 to 100 scale
Source text: as §1

[14] = tested on: corn (Zea mays); experiment: Test A postemergence, corn; conditions: 0 to 100 scale
Source text: as §1

[15] = tested on: blackgrass (Alopecurus myosuroides); experiment: Test A postemergence, blackgrass; conditions: 0 to 100 scale
Source text: as §1

[16] = tested on: galium (catchweed bedstraw, Galium aparine); experiment: Test A postemergence, galium; conditions: 0 to 100 scale
Source text: as §1

[17] = tested on: rice (Oryza sativa); experiment: Test B flooded paddy test, rice; conditions: Flood, 250 g ai/ha; scale of 0 to 100
Procedure: (§2) Plant species in the flooded paddy test selected from rice (Oryza sativa), sedge, umbrella (small-flower umbrella sedge, Cyperus difformis), ducksalad (Heteranthera limosa), and barnyardgrass (Echinochloa crus-galli) were grown to the 2-leaf stage for testing. At the time of treatment, test pots were flooded to 3 cm above the soil surface, treated by application of test compounds directly to the paddy water, and then maintained at that water depth for the duration of the test. Treated plants and controls were maintained in a greenhouse for 13 to 15 d, after which time all species were compared to controls and visually evaluated. Plant response ratings, summarized in Table B, are based on a scale of 0 to 100 where 0 is no effect and 100 is complete control. A dash (—) response means no test result.

[18] = tested on: sedge, umbrella (small-flower umbrella sedge, Cyperus difformis); experiment: Test B flooded paddy test, sedge, umbrella; conditions: Flood, 250 g ai/ha; scale of 0 to 100
Procedure: as §2

[19] = tested on: ducksalad (Heteranthera limosa); experiment: Test B flooded paddy test, ducksalad; conditions: Flood, 250 g ai/ha; scale of 0 to 100
Procedure: as §2

[20] = tested on: barnyardgrass (Echinochloa crus-galli); experiment: Test B flooded paddy test, barnyardgrass; conditions: Flood, 250 g ai/ha; scale of 0 to 100, 0 no effect, 100 complete control
Procedure: as §2

[21] = 125 g ai/ha, 0 no effect, 100 complete control

Row | Compound | Plant response rating, Barnyardgrass ([1]; 31 g ai/ha) | Plant response rating, Barnyardgrass ([1]; 125 g ai/ha) | Plant response rating, Kochia ([2]; 31 g ai/ha) | Plant response rating, Kochia ([2]; 125 g ai/ha) | Plant response rating, Ragweed ([3]; 31 g ai/ha) | Plant response rating, Ragweed ([3]; 125 g ai/ha) | Plant response rating, Ryegrass, Italian ([4]; 31 g ai/ha) | Plant response rating, Ryegrass, Italian ([4]; 125 g ai/ha) | Plant response rating, Foxtail, Green ([5]; 31 g ai/ha) | Plant response rating, Foxtail, Green ([5]; 125 g ai/ha) | Plant response rating, Pigweed ([6]; 31 g ai/ha) | Plant response rating, Pigweed ([6]; 125 g ai/ha) | Plant response rating, Barnyardgrass ([7]; 31 g ai/ha) | Plant response rating, Barnyardgrass [7, 21] | Plant response rating, Kochia ([8]; 31 g ai/ha) | Plant response rating, Kochia ([8]; 125 g ai/ha) | Plant response rating, Ragweed ([9]; 31 g ai/ha) | Plant response rating, Ragweed ([9]; 125 g ai/ha) | Plant response rating, Ryegrass, Italian ([10]; 31 g ai/ha) | Plant response rating, Ryegrass, Italian ([10]; 125 g ai/ha) | further results
1 | Cn1nc(Cl)c(O)c(-c2c3ccccc3cc3ccccc23)c1=O [Compound 1, 4-(9-anthracenyl)-6-chloro-5-hydroxy-2-methyl-3(2H)-pyridazinone] | 0 | 0 | 0 | 20 | 70 | 100 | 20 | 30 | 0 | 0 | 100 | 100 | 0 | 20 | 10 | 20 | 80 | 90 | 20 | 40 | Plant response rating, Foxtail, Green ([11]; 31 g ai/ha): 10; Plant response rating, Foxtail, Green ([11]; 125 g ai/ha): 50; Plant response rating, Pigweed ([12]; 31 g ai/ha): 90; Plant response rating, Pigweed ([12]; 125 g ai/ha): 100; Plant response rating, Wheat ([13]; 31 g ai/ha): 0; Plant response rating, Wheat ([13]; 125 g ai/ha): 10; Plant response rating, Corn ([14]; 31 g ai/ha): 0; Plant response rating, Corn ([14]; 125 g ai/ha): 0; Plant response rating, Blackgrass ([15]; 31 g ai/ha): 0; Plant response rating, Blackgrass ([15]; 125 g ai/ha): 10; Plant response rating, Galium ([16]; 31 g ai/ha): 70; Plant response rating, Galium ([16]; 125 g ai/ha): 90; Plant response rating, Rice [17]: 0; Plant response rating, Sedge, Umbrella [18]: 90; Plant response rating, Ducksalad [19]: 85; Plant response rating, Barnyardgrass [20]: 20
2 | Cn1nc(Cl)c(O)c(-c2c3ccccc3c(Cl)c3ccccc23)c1=O [Compound 2, 6-chloro-4-(10-chloro-9-anthracenyl)-5-hydroxy-2-methyl-3(2H)-pyridazinone] | 0 | 0 | 0 | 10 | 80 | 100 | 20 | 70 | 0 | 90 | 100 | 100 | 0 | 20 | 10 | 70 | 90 | 90 | 50 | 80 | Plant response rating, Foxtail, Green ([11]; 31 g ai/ha): 10; Plant response rating, Foxtail, Green ([11]; 125 g ai/ha): 60; Plant response rating, Pigweed ([12]; 31 g ai/ha): 100; Plant response rating, Pigweed ([12]; 125 g ai/ha): 100; Plant response rating, Wheat ([13]; 31 g ai/ha): 0; Plant response rating, Wheat ([13]; 125 g ai/ha): 30; Plant response rating, Corn ([14]; 31 g ai/ha): 0; Plant response rating, Corn ([14]; 125 g ai/ha): 0; Plant response rating, Blackgrass ([15]; 31 g ai/ha): 0; Plant response rating, Blackgrass ([15]; 125 g ai/ha): 60; Plant response rating, Galium ([16]; 31 g ai/ha): 20; Plant response rating, Galium ([16]; 125 g ai/ha): 100; Plant response rating, Rice [17]: 0; Plant response rating, Sedge, Umbrella [18]: 75; Plant response rating, Ducksalad [19]: 80; Plant response rating, Barnyardgrass [20]: 0
3 | Cn1nc(Cl)c(O)c(-c2c3ccccc3c(Br)c3ccccc23)c1=O [Compound 3, 4-(10-bromo-9-anthracenyl)-6-chloro-5-hydroxy-2-methyl-3(2H)-pyridazinone] | 0 | 50 | 0 | 50 | 20 | 100 | 20 | 80 | 10 | 80 | 100 | 100 | 20 | 60 | 10 | 50 | 80 | 90 | 40 | 50 | Plant response rating, Foxtail, Green ([11]; 31 g ai/ha): 40; Plant response rating, Foxtail, Green ([11]; 125 g ai/ha): 90; Plant response rating, Pigweed ([12]; 31 g ai/ha): 100; Plant response rating, Pigweed ([12]; 125 g ai/ha): 100; Plant response rating, Wheat ([13]; 31 g ai/ha): 20; Plant response rating, Wheat ([13]; 125 g ai/ha): 60; Plant response rating, Corn ([14]; 31 g ai/ha): 0; Plant response rating, Corn ([14]; 125 g ai/ha): 10; Plant response rating, Blackgrass ([15]; 31 g ai/ha): 10; Plant response rating, Blackgrass ([15]; 125 g ai/ha): 70; Plant response rating, Galium ([16]; 31 g ai/ha): 90; Plant response rating, Galium ([16]; 125 g ai/ha): 90
